# In US4404218A, “Antibiotic SF-2103A substance and process for production thereof” (Meiji Seika Kaisha Ltd., priority 1980, dated 1983):
# Where a name gives a salt, the structure may show the parent alone.
# Key:
# [1] = target: T1, β-lactamase of Citrobacter freundii GN 346 (Citrobacter freundii, UniProt P05193); assay: β-lactamase inhibitory activity, modified Sargent's method; type: biochemical; conditions: read-out: 50% Inhibitory Concentration (I50) (converted)
# T1 construct: cefalotin substrate
# [2] = system: Citrobacter freundii GN 346; assay: synergistic effects with β-lactam antibiotics, paper disk inhibition zone
# [3] = system: Proteus rettgeri GN 624; assay: as above
# [4] = system: Penicillinase; assay: β-lactamase inhibitory activity, modified Sargent's method; type: biochemical; conditions: at 10 ^.parallel.g/ml; substrate Penicilline G Potassium Salt
# Source text: The Sargent's method was partly modified as follows
# Reagent A: Enzyme solution properly diluted with 0.1 M phosphate buffer (pH 7.0) as to show 0.6 optical density of consumption of iodine at 490 nm when measured under the undermentioned conditions.
# Reagent B: 1.3% Penicillin G potassium salt aqueous solution for penicillinase assay. 1.3% Cefalotin sodium salt aqueous solution for cephalosporinase assay (β-lactamase of Proteus vulgaris M-8243 or Citrobacter freundii GN 346).
# Reagent C: 0.1 M phosphate buffer (pH 7.0)
# Reagent D: Iodine acetate buffer solution which is prepared by adding 5 ml of stock iodine solution* to 95 ml of pH 4.0 acetate buffer (80 g of anhydrous sodium acetate adjusted to pH 4.0 with acetic acid and made up to 2 liters with distilled water).
# A reaction mixture consisted of 0.5 ml of Reagent B and 2 ml of Reagent C is pre-incubated for 5 min at 30° C., and 0.5 ml of Reagent A is added to it and kept for 30 min at 30° C. At the end of reaction, 5 ml of Reagent D is added with rapid mixing and kept for 10 min at 30° C., then the optical density at 490 nm is measured.
# As the blank test, an incubation mixture containing 0.5 ml of Reagent B and 2 ml of Reagent C is kept at 30° C. for 30 min, after that 5 ml of Reagent D and 0.5 ml of Reagent A are added to it. Then the optical density is measured in the same way. […]
# [5] = stability; type: physicochemical
# Source text: Furthermore, it is difficult to isolate the SF-2103A substance in a free acid form because it is, as described above, very unstable in an acidic state. The SF-2103A substance is therefore obtained as a salt thereof in a pale yellow or white amorphous powder form by freeze-drying a neutral aqueous solution thereof. The purity of the SF-2103A substance obtained varies depending on the potency of the culture broth.
# [6] = system: Escherichia coli GN206; assay: mouse protection test, Experiment I; conditions: observed 7 days, groups of five
# [7] = system: Proteus vulgaris M-8243; assay: synergistic effects with β-lactam antibiotics, paper disk inhibition zone
# [8] = system: Staphylococcus aureus Smith; assay: antibacterial activity, agar dilution method; type: cell-based; conditions: Heart Infusion Agar, read-out: Minimum Inhibitory Concentration
# [9] = system: Escherichia coli NIHJ JC-2; assay: antibacterial activity, agar dilution method; type: cell-based; conditions: NIHJJC2, Heart Infusion Agar, read-out: Minimum Inhibitory Concentration
# [10] = system: Proteus vulgaris GN 76/C-1; assay: antibacterial activity, agar dilution method; type: cell-based; conditions: GN76, Heart Infusion Agar, read-out: Minimum Inhibitory Concentration
# [11] = toxicity (LD50); conditions: in vivo, mice or rat
# Method: […]. LD50 values by oral administration, intramuscular injection and intravenous injection were all higher than 2,000 mg/kg.
# [12] = system: Bacillus subtilis ATCC 6633; assay: antibacterial activity, agar dilution method; type: cell-based; conditions: ATCC6633, Heart Infusion Agar, read-out: Minimum Inhibitory Concentration
# [13] = system: Pseudomonas aeruginosa E-2; assay: antibacterial activity, agar dilution method; type: cell-based; conditions: E2, Heart Infusion Agar, read-out: Minimum Inhibitory Concentration
# [14] = system: Proteus mirabilis GN 310; assay: antibacterial activity, agar dilution method; type: cell-based; conditions: GN310, Heart Infusion Agar, read-out: Minimum Inhibitory Concentration
# [15] = solubility; type: physicochemical
# [16] = system: Klebsiella pneumoniae PCI 602; assay: antibacterial activity, agar dilution method; type: cell-based; conditions: PCI602, Heart Infusion Agar, read-out: Minimum Inhibitory Concentration
# [17] = system: Escherichia coli No. 29; assay: antibacterial activity, agar dilution method; type: cell-based; conditions: Heart Infusion Agar, read-out: Minimum Inhibitory Concentration
# Source text: In this determination, Heart Infusion Agar (produced by Eiken Chemical Co., Ltd.) was used as the medium.
# [18] = system: Serratia marcescens No. 1; assay: antibacterial activity, agar dilution method; type: cell-based; conditions: Heart Infusion Agar, read-out: Minimum Inhibitory Concentration
# [19] = system: Citrobacter freundii GN 346; assay: antibacterial activity, agar dilution method; type: cell-based; conditions: GN346, Heart Infusion Agar, read-out: Minimum Inhibitory Concentration
# [20] = system: Proteus morganii Kono; assay: antibacterial activity, agar dilution method; type: cell-based; conditions: Morganella morganii, Heart Infusion Agar, read-out: Minimum Inhibitory Concentration
# [21] = system: Shigella dysenteriae Shigae; assay: microbe, parasite or virus in culture; type: cell-based; conditions: read-out: Minimum Inhibitory Concentration
# [22] = system: Staphylococcus aureus 209P; assay: antibacterial activity, agar dilution method; type: cell-based; conditions: Heart Infusion Agar, read-out: Minimum Inhibitory Concentration
# [23] = SF-2103A alone, 1 μg per disk, listed as SF-2103A
# [24] = β-lactam alone on 8 mm disk (Ampicillin 10 μg, Carbenicillin 2 μg, Cefalotin 2 μg, Cefaloridine 5 μg), 37° C., 16 hours
# T1 sequence (P05193 21-381): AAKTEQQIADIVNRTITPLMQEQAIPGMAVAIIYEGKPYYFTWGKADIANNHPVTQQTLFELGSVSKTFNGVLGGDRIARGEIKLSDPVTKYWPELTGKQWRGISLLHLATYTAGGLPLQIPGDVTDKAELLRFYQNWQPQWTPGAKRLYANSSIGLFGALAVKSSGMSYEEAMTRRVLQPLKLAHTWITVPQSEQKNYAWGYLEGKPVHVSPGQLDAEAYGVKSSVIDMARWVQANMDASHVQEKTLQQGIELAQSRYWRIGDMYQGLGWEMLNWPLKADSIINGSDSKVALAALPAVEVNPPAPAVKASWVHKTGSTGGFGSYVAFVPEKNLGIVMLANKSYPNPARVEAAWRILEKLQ
structure (smiles),measurement,setting,value
CC(OS(=O)(=O)O)C1C(=O)N2C(C(=O)O)=C(S(=O)(=O)O)CC12 (stereo not drawn) [SF-2103A substance],IC50,[1],0.504 µM
same,Diameter of Inhibition Zone,"[2]; SF-2103A alone, 1 μg per disk",does not show the inhibition zone
same,Diameter of Inhibition Zone,[2]; [23],0 mm
same,Diameter of Inhibition Zone,"[3]; SF-2103A alone, 1 μg per disk",does not show the inhibition zone
same,Diameter of Inhibition Zone,[3]; [23],0 mm
same,Inhibitory Ratio,[4],34.4%
same,stability,[5]; acidic state (free acid form),very unstable
same,stability,"[5]; temperatures higher than room temperature, acidic or alkaline state",extremely unstable
same,survival of infected mice,[6]; 1 mg/mouse subcutaneously twice at one and two hours after intraperitoneal infection,four of the five mice survived
same,survival of infected mice,[6]; 2 mg/mouse subcutaneously once at one hour after intraperitoneal infection,two of the five mice survived
same,Diameter of Inhibition Zone,"[7]; SF-2103A alone, 1 μg per disk",does not show the inhibition zone
same,Diameter of Inhibition Zone,[7]; [23],0 mm
CC1(C)S[C@@H]2[C@H](NC(=O)[C@H](N)c3ccccc3)C(=O)N2[C@H]1C(=O)O [Ampicillin],Diameter of Inhibition Zone,[2]; [24],0 mm
same,Diameter of Inhibition Zone,[3]; [24],0 mm
same,Diameter of Inhibition Zone,[7]; [24],0 mm
CC(OS(=O)(=O)O)C1C(=O)N2C(C(=O)O)=C(S(=O)(=O)O)CC12 (stereo not drawn) [SF-2103A substance sodium salt],MIC,[8],25 mg/L
same,MIC,[9],12.5 mg/L
same,MIC,[10],25 mg/L
same,LD50,"[11]; im, intramuscular injection",> 2000 mg/kg
same,LD50,[11]; intravenous injection,> 2000 mg/kg
same,LD50,[11]; oral administration,> 2000 mg/kg
same,MIC,[12],50 mg/L
same,MIC,[13],> 100 mg/L
same,MIC,[14],50 mg/L
same,Solubility,[15]; in benzene,insoluble
same,Solubility,[15]; in chloroform,insoluble
same,Solubility,[15]; in ethyl acetate,insoluble
same,Solubility,[15]; in methanol,soluble
same,Solubility,[15]; in water,Freely soluble
same,MIC,[16],50 mg/L
same,MIC,[17],3.13 mg/L
same,MIC,[18],50 mg/L
same,MIC,[19],6.25 mg/L
same,MIC,[20],25 mg/L
same,MIC,[21],3.13 mg/L
same,MIC,[22],25 mg/L
O=C(Cc1cccs1)N[C@@H]1C(=O)N2C(C(=O)[O-])=C(C[n+]3ccccc3)CS[C@H]12 [Cefaloridine],Diameter of Inhibition Zone,[2]; [24],0 mm
same,Diameter of Inhibition Zone,[3]; [24],0 mm
same,Diameter of Inhibition Zone,[7]; [24],0 mm
CC(=O)OCC1=C(C(=O)O)N2C(=O)[C@@H](NC(=O)Cc3cccs3)[C@H]2SC1 [Cefalotin],Diameter of Inhibition Zone,[2]; [24],0 mm
same,Diameter of Inhibition Zone,[3]; [24],0 mm
same,Diameter of Inhibition Zone,[7]; [24],0 mm
CC1(C)S[C@@H]2[C@H](NC(=O)C(C(=O)O)c3ccccc3)C(=O)N2[C@H]1C(=O)O (stereo partly drawn) [Carbenicillin],Diameter of Inhibition Zone,[2]; [24],0 mm
same,Diameter of Inhibition Zone,[3]; [24],0 mm
same,Diameter of Inhibition Zone,[7]; [24],0 mm
